Laboratory results taken from patent US9650428B2, “Methods and compositions for treating cancer” (Roger Williams Hospital, priority 2014, dated 2017).

Test system: U251MG glioma cells
Assay: In vivo efficacy in athymic nude mice with subcutaneous U251MG glioma
Details: tumor-bearing mice; TMZ alone orally 64 mg/kg/day for 4 days, no T cells (Group III)
Protocol: The in vivo efficacy of the IL13E13K.R109K-2A-P140KMGMT construct was tested in mice using the viral particles generated as described in Example 2. Fifty athymic nude mice were injected subcutaneously (left flank) with U251MG glioma cells (40 mice; Groups I-IV) or PBS (10 mice). Four days after glioma implantation, 3 groups of mice (Groups I, II and III, 10 mice/group) were treated orally with TMZ (64 mg/kg/day by oral gavage) for 4 days. On the 5th day after glioma implantation, the 3 groups of mice that had been treated orally with TMZ were treated as follows: Group I: an intra-tumoral injection of the IL13E13K.R109KCAR-2A-P140KMGMT construct (TMZ-resistant); Group II: the IL13 IL13E13K.R109K construct with no MGMT (TMZ sensitive); Group III: treatment with PBS only (no injection of T cells). Group IV received no T cells or TMZ treatment. The mice were monitored for visual tumor growth, behavioral changes, and morbidity until day 90 after injection of the T cells at which time the mice were sacrificed as required by IACUC restrictions.

Cn1nnc2c(C(N)=O)ncn2c1=O [TMZ, temozolomide]
median survival time: 36 days
survival rate: 20%
